Measurements as given in patent US20250387392A1, “PYRIDAZINONE COMPOSITIONS FOR THE TREATMENT OF NEUROMUSCULAR CONDITIONS” (Edgewise Therapeutics, Inc., priority 2022, published 2025).

Columns and labels:
muscle injury proteins = experiment: SOMAscan plasma proteomics, muscle injury proteins, BMD participants; assay type: in vivo, human
Experimental: (§1) Changes in muscle injury biomarkers such as creatine kinase (CK) or fast skeletal muscle troponin I (TNNI2) were assessed in clinical trial participants. The abundance of the biomarkers were measured by plasma proteomics (SOMAscan) in short- (1-2 months), mid- (3-4 months), or long-term (6-12 months) treatment. FIG. 14A illustrates the design of this study. 12 BMD participants, 7 of whom participated in the Phase I MAD study (Example 2), were enrolled and initially treated with 10 mg of Compound 1 daily, with dose-escalation from 10 mg to 20 mg daily as shown. Blood draws were taken at pre-dose baseline, then at regular intervals thereafter for analysis by SOMAscan, as well as quantification of CK activity or TNNI2 concentration by an activity assay or ELISA. SOMAscan is a multistep modified aptamer-based assay for highOthroughpu, sensitive, and unbiased biomarker measurement. Proteins in the samples were selectively bound with fluorescent aptamers, which were then measured on a chip array to yield values proportion to absolute concentrations.
In this study, SOMAscan was correlated to CK and TNNI2 to allow for direct conversion to absolute concentrations as well as used to identify large-scale proteomic differences between short- and long-term treatment with Compound 1. […] FIG. 14C illustrates SOMAscan-quantified CK and TNNI2 in blood. […]

adults with BMD [1] = experiment: Safety and tolerability in adults with BMD (ARCH open label study); assay type: in vivo, human
Experimental: (§2) FIGS. 2 to 8 depict positive 4-month interim results from the ongoing open label, single-center study assessing the safety, tolerability, and impact on muscle damage biomarkers, and pharmacokinetics (PK) of Compound 1 in adults with BMD. Twelve adults with BMD enrolled in the ARCH study, were dose escalated to daily 15 mg oral doses of Compound 1 at night after having initially received a 10 mg dose during the first 2 months of the study. […] All eligible patients have subsequently been dose escalated to 20 mg daily as per protocol.
(§3) FIGS. 10 to 13 depict promising 12-month results from the ongoing open label, single-center study assessing the safety, tolerability, and impact on muscle damage biomarkers, and pharmacokinetics (PK) of Compound 1 in adults with BMD. The different dosing regimens depicted in FIGS. 10A-10C, FIG. 111B, and FIGS. 12A-12F were carried out in three cohorts. One cohort has been dosed with 20 mg of Compound 1 for 12 months. A second cohort has been dosed with 15 mg of Compound 1 for 6 months. A third cohort has been dosed with 10 mg of Compound 1 for 2 months. […] Therefore, no treatment plans were discontinued due to AEs.

adults with BMD [2] = experiment: North Star Ambulatory Assessment (NSAA) in adults with BMD; assay type: in vivo, human; details: for NSAA outcome: 20 mg group
Source text: After 4 months of Compound 1 dosing, NSAA increased by an average of 1.17 points compared to pre-therapy baseline. […] The NSAA improvements observed after only 4 months of Compound 1 dosing differ from trajectories observed in the natural history study reported by Bello et al. (2016), one of the most comprehensively characterized BMD cohorts, in which the yearly decline was 1.22 NSAA points.
NSAA scores were also quantified based on FIGS. 9A-9C. Compound 1 stabilized NSAA scores by rescuing the natural history trend by about 1.6 points, and led to a trend towards an improvement in the scores. […] In comparison, the expected natural history decline in untreated patients is around −1.2 to −1.3 points.
Therefore, a lower exposure of Compound 1 (e.g., 10 mg) may have a more desired functional benefit.

creatine kinase (CK) = experiment: Muscle damage biomarker creatine kinase in adults with BMD (activity assay / SOMAscan); assay type: in vivo, human
Experimental: as §2
(§4) Treatment with Compound 1 led to a significant decrease in key biomarkers of muscle damage when assessed by laboratory assays. Importantly, CK and fast skeletal muscle troponin I were reduced by an average of 29% and 73%, respectively, after 4 months (FIG. 5).
(§5) Several biomarkers of muscle damage were tested to evaluate the efficacy of Compound 1 with different dosing regimens.
as §1
(§6) In this study, SOMAscan was correlated to CK and TNNI2 to allow for direct conversion to absolute concentrations as well as used to identify large-scale proteomic differences between short- and long-term treatment with Compound 1. FIG. 14B illustrates validation of CK and TNNI2, where a strong correlation between SOMAscan and absolute measurements of CK (left) and TNNI2 (right) was observed. FIG. 14C illustrates SOMAscan-quantified CK and TNNI2 in blood. […] Indicated significance was for all values at that treatment point relative to pre-dose baseline. FIG. 14D and FIG. 14E illustrate the effect of Compound 1 on muscle injury proteins. SOMAscan was used to analyze the effects of treatment on a set of proteins identified to correlate with bona-fide contraction-induced skeletal muscle injury (FIG. 14D).

adults with BMD [3] = experiment: Self-reported pain score in adults with BMD; assay type: in vivo, human
Source text: FIG. 8 depicts a decrease in the self-reported pain score in BMD patients at two and four months following the initial administration of Compound 1.
BMD individuals usually report more diffuse pain on spine and calves, See Jacques M F et al., Plos ONE (2019). Self-reported pain evaluation was collected and quantified in FIG. 13. […] Therefore, Compound 1 has shown to reduce pain associated with BMD.

[4] = tested on: fast skeletal muscle troponin I (TNNI2); experiment: Muscle damage biomarker fast skeletal muscle troponin I in adults with BMD (ELISA / SOMAscan); assay type: in vivo, human
Experimental: as §2, §4, §5, §1, §6

[5] = Preclinical experiments, target muscle concentration; assay type: in vivo; details: from preclinical experiments
Experimental: (§7) In parallel, the plasma concentrations of Compound 1 were also monitored across different dosing regimens. For group with higher dosage (e.g., the 20 mg group), there were patients with high exposures or low exposures. It was unexpected that the patients with high exposures reached to a range of plasma concentration after dosing with 20 mg/day, which was more than 4-fold higher than the target exposures predicted from preclinical models. It is also worth noting that Compound 1 was enriched in muscle. The target muscle concentration of Compound 1 from patients with lower plasma concentration were 1,000-4000 ng/g from preclinical experiments. Using muscle biopsy data from a Phase 1 multiple ascending dose (MAD) study, this equates to approximately 15-70 ng/ml in BMD. In other words, Compound 1 was enriched by about 60 fold in muscle compared to plasma.

adults with BMD [6] = experiment: Functional tests (velocity, muscle strength) in adults with BMD; assay type: in vivo, human
Source text: FIG. 7 depicts increases in functional measures such; walk/run velocity, stair climb velocity, and grip strength in BMD patients at two and four months following the initial administration of Compound 1 in comparison to baseline measurements.
FIGS. 12A-12F depict the functional evaluation after the treatment of Compound 1. FIG. 12A depicts the average 10 m velocity in different dosing regimens. All p-values NS with a 7% decrease at 12 months. Last observation carried forward (all N=12, except for 2 missing values, month 4 and 8). FIG. 12B depicts the average 100 meter velocity in different dosing regimens. All p-values NS with 0% change at 12 months. Last observation carried forward (all N=12, except for 2 missing values, month 4 and 8). FIG. 12C depicts the average 4-stair climb time velocity in different dosing regimens. All p-values NS except that p value for 12 months was 0.016, which was 13% decrease at 12 months. FIG. 12D depicts the average maximum grip strength in different dosing regimens. p-values <0.05 at 4, 6, 8 month and NS at 12 months. There was a 8% decrease at 12 months. FIG. 12E depicts the average maximum knee extension strength in different dosing regimens. P-values <0.05 at 4, 8, 12 month. There was a 25% decrease at 12 months. FIG. 12F depicts the maximum elbow flexion strength in different dosing regimens. All p-values NS, and there was no change at 12 months.
Furthermore, functional tests were carried out to evaluate the functional improvements of muscle in the participants resulted from Compound 1. […] Different parameters of muscle strength were also quantified and evaluated in FIGS. 12D-12F.

[7] = Muscle versus plasma concentration, muscle biopsy data from Phase 1 multiple ascending dose (MAD) study; assay type: in vivo, human
Experimental: as §7

[8] = tested on: proinflammatory cytokines and chemokines, anti-inflammatory interleukins; experiment: SOMAscan plasma proteomics, inflammatory proteins, BMD participants; assay type: in vivo, human
Experimental: as §1
FIG. 14G and FIG. 14H illustrate favorable shift in inflammatory biomarkers with long-term treatment. […] The observed protein concentration changes after 6-12 months were consistent across study participants (FIG. 14H).

myoglobin = experiment: Muscle damage biomarker myoglobin in adults with BMD; assay type: in vivo, human
Experimental: as §3, §5

[9] = Plasma PK of Compound 1 in adults with BMD (ARCH open label study); assay type: in vivo, human; design: Mean AUC for the Compound 1 Plasma PK levels: unit not given here; details: for Mean AUC for the Compound 1 Plasma PK levels: BMD patients
Experimental: FIG. 4 depicts plasma levels of Compound 1 and step count of BMD patients after four months of dosing.
as §2, §3, §7

[10] = after 4 months, laboratory assay
[11] = short-term treatment (1-2 months), relative to pre-dose baseline
[12] = two and four months after initial administration (FIG. 7)

Target muscle concentration of Compound 1 [5]: 1,000-4000 ng/g
Muscle strength effect (adults with BMD [6]; some participants from the 20 mg group (FIGS. 12C-12F)): muscle strength weakness
Kp ([7]; human, muscle, read-out: Enrichment in muscle compared to plasma): ~60
Plasma concentration equating to target muscle concentration ([7]; in BMD, using Phase 1 MAD muscle biopsy data): 15 to 70 ng/mL
Mean AUC for the Compound 1 Plasma PK levels ([9]; 10 mg dose): 1,454
Mean AUC for the Compound 1 Plasma PK levels ([9]; 15 mg dose): 2,299
Mean AUC for the Compound 1 Plasma PK levels ([9]; 20 mg dose): 2,293
Plasma concentration relative to target exposures predicted from preclinical models ([9]; 20 mg/day, patients with high exposures): more than 4 fold
Compound: O=c1ccc(-c2cnc(OCC(F)(F)F)nc2)nn1Cc1cncc(F)c1 [Compound 1]
Muscle injury proteins (SOMAscan) (muscle injury proteins; long-term treatments (6-12 months)): stable levels or further decreases
Muscle injury proteins (SOMAscan) (muscle injury proteins; short-term treatment (1-2 months, 10 mg)): decreased from pre-dose baseline
Most common adverse events (adults with BMD [1]; 4-month interim): dizziness, drowsiness, and headache
Tolerability (adults with BMD [1]; 4-month interim, 10 mg for 2 months then 15 mg daily oral at night, twelve adults with BMD): well-tolerated in all participants with no discontinuations or dose reductions
Tolerability (adults with BMD [1]; 12-month results, 10, 15 and 20 mg doses): well tolerated at all doses without any severe adverse events
NSAA outcome (adults with BMD [2]; participants under high exposures (negative changes in NSAA)): less optimal outcomes
NSAA outcome (adults with BMD [2]; participants with the lower exposures): stable or the best improving NSAA scores
Participants with the same or better NSAA scores (adults with BMD [2]; 12-month group (FIG. 11C)): about 75%
NSAA rescue of the natural history trend (adults with BMD [2]; 12-month results (FIG. 11A)): about 1.6 points
Average NSAA increase compared to pre-therapy baseline (adults with BMD [2]; after 4 months of dosing): 1.17 points
Participants with functional improvement or no decline on NSAA relative to baseline (adults with BMD [2]; after 4 months of dosing): nine of the twelve
Change of creatine kinase (CK) level (creatine kinase (CK); 10 mg dose): near maximal decreases
Average reduction of CK (creatine kinase (CK); [10]): 29%
Change of creatine kinase (CK) level (creatine kinase (CK); different dosing regimens up to 12 months (FIG. 10A)): sustained decrease
SOMAscan-quantified circulating CK (creatine kinase (CK); [11]): reduced by short-term treatment
Self-reported pain scores (adults with BMD [3]; after 12 months of treatment (FIG. 13)): positive trend
Self-reported pain score (adults with BMD [3]; two and four months after initial administration (FIG. 8)): decrease
Change of TNNI2 level ([4]; 10 mg dose): near maximal decreases
Average reduction of fast skeletal muscle troponin I [4, 10]: 73%
Patients reaching fast skeletal muscle troponin I levels of unaffected adults ([4]; after 4 months, twelve participants): four patients achieving levels observed in unaffected adults
Change of TNNI2 level ([4]; different dosing regimens up to 12 months (FIG. 10B)): sustained decrease
SOMAscan-quantified circulating TNNI2 ([4]; longer-term treatment timepoints): reduced to nearly healthy levels
SOMAscan-quantified circulating TNNI2 [4, 11]: reduced by short-term treatment
Deterioration in 10 m velocity (adults with BMD [6]; 12-month results (FIG. 12A)): no statistically significant deterioration
Deterioration in 100 meter velocity (adults with BMD [6]; 12-month results (FIG. 12B)): no statistically significant deterioration
Deterioration in 4-stair climb time velocity (adults with BMD [6]; 12-month results (FIG. 12C)): no statistically significant deterioration
Decrease in average 4-stair climb time velocity (adults with BMD [6]; at 12 months, p 0.016 (FIG. 12C)): 13%
Decrease in average maximum knee extension strength (adults with BMD [6]; at 12 months, p <0.05 (FIG. 12E)): 25%
Decrease in average 10 m velocity (adults with BMD [6]; at 12 months, p NS (FIG. 12A)): 7%
Change in average 100 meter velocity (adults with BMD [6]; at 12 months, p NS (FIG. 12B)): 0%
Decrease in average maximum grip strength (adults with BMD [6]; at 12 months, p NS (FIG. 12D)): 8%
Change in maximum elbow flexion strength (adults with BMD [6]; at 12 months, p NS (FIG. 12F)): no change
Grip strength versus baseline (adults with BMD [6]; [12]): increases
Stair climb velocity versus baseline (adults with BMD [6]; [12]): increases
Walk/run velocity versus baseline (adults with BMD [6]; [12]): increases
Proinflammatory cytokines and chemokines (SOMAscan) ([8]; after 6-12 months): very significantly reduced
Anti-inflammatory interleukins (SOMAscan) ([8]; after long-term treatment (6-12 months)): increased
Change of myoglobin level (myoglobin; 10 mg dose): near maximal decreases
Change of myoglobin level (myoglobin; different dosing regimens up to 12 months (FIG. 10C)): sustained decrease
